Test results reported in patent publication US20080032945A1, “2'-MODIFIED OLIGONUCLEOTIDES” (Isis Pharmaceuticals, Inc., priority 1992, published 2008).
“Also recorded” adds a separate entry of the source. d = 2'-deoxy (DNA); f = 2'-fluoro

How the values were obtained:
[1] = tested on: ras mRNA (wild-type H-ras codon-12); assay: Northern blot analysis of ras expression in HeLa cells; type: cell-based, human; conditions: result in words
Protocol: Oligonucleotides 2570 and 2503 were also tested to determine their effects on ras expression in HeLa cells, which have a wild-type (i.e., not activated) H-ras codon-12.
The human urinary bladder cancer cell line T24 was obtained from the American Type Culture Collection (Rockville Md.). Cells were grown in McCoy's 5A medium with L-glutamine (GIBCO-BRL, Gaithersburg, Md.), supplemented with 10% heat-inactivated fetal calf serum and 50 U/ml each of penicillin and streptomycin. Cells were seeded on 100 mm plates. When they reached 70% confluency, they were treated with oligonucleotide. Plates were washed with 10 ml prewarmed PBS and 5 ml of OptiMEM (GIBCO) reduced-serum medium containing 2.5 μl DOTMA. Oligonucleotide was then added to the desired concentration. After 4 hours of treatment, the medium was replaced with McCoy's medium. Cells were harvested 48 hours after oligonucleotide treatment and RNA was isolated using a standard CsCl purification method. […]
Northern hybridization: 10 μg of each RNA was electrophoresed on a 1.2% agarose/formaldehyde gel and transferred overnight to GeneBind 45 nylon membrane (Pharmacia LKB, Piscataway, N.J.) using standard methods. […] Blots were autoradiographed and the intensity of signal was quantitated using an ImageQuant PhosphorImager (Molecular Dynamics, Sunnyvale, Calif.). […]

[2] = tested on: ras-luciferase (codon-12 point mutation of activated H-ras); assay: ras-luciferase reporter gene system; type: cell-based, human
[3] = tested on: 25mer oligoribonucleotide complement; assay: Melting curves with 25mer oligoribonucleotide complement; type: binding; conditions: 17mer hybridized with 25mer oligoribonucleotide complement
Text: Other sugar modifications: The effects of other 2′ sugar modifications besides 2′-O-methyl on antisense activity in chimeric oligonucleotides have been examined. These modifications are listed in Table 4, along with the Tm values obtained when 17mer oligonucleotides having 2′-modified nucleotides flanking a 7-base deoxy gap were hybridized with a 25mer oligoribonucleotide complement as described in Example 25. […] As alkyl length increased, Tm decreased.
Absorbance vs. temperature curves were measured at 260 nm using a Gilford 260 spectrophotometer interfaced to an IBM PC computer and a Gilford Response II spectrophotometer. The buffer contained 100 mM Na^+, 10 mM phosphate and 0.1 mM EDTA, pH 7. Oligonucleotide concentration was 4 μM each strand determined from the absorbance at 85° C. and extinction coefficients calculated according to Puglisi and Tinoco [Methods in Enzymol., 180, 304 (1989). Tm values, free energies of duplex formation and association constants were obtained from fits of data to a two state model with linear sloping baselines. [Petersheim and Turner, Biochemistry, 22, 256 (1983). Reported parameters are averages of at least three experiments. For some oligonucleotides, free energies of duplex formation were also obtained from plots of Tm^−1 vs log10 (concentration). Borer et al., J. Mol. Biol., 86, 843 (1974).

ras mRNA = assay: Northern blot analysis of ras expression in T24 cells; type: cell-based, human; conditions: for ras expression / ras mRNA levels: result in words
Protocol: The human urinary bladder cancer cell line T24 was obtained from the American Type Culture Collection (Rockville Md.). Cells were grown in McCoy's 5A medium with L-glutamine (GIBCO-BRL, Gaithersburg, Md.), supplemented with 10% heat-inactivated fetal calf serum and 50 U/ml each of penicillin and streptomycin. Cells were seeded on 100 mm plates. When they reached 70% confluency, they were treated with oligonucleotide. Plates were washed with 10 ml prewarmed PBS and 5 ml of OptiMEM (GIBCO) reduced-serum medium containing 2.5 μl DOTMA. Oligonucleotide was then added to the desired concentration. After 4 hours of treatment, the medium was replaced with McCoy's medium. Cells were harvested 48 hours after oligonucleotide treatment and RNA was isolated using a standard CsCl purification method. [Kingston in Current Protocols in Molecular Biology, F. M. Ausubel, R. Brent, R. E. Kingston, D. D. Moore, J. A. Smith, J. G. Seidman and K. Strahl, Eds., John Wiley and Sons, New York.] The human epithelioid carcinoma cell line HeLa 229 was obtained from the American Type Culture Collection (Bethesda, Md.). HeLa cells were maintained as monolayers on 6-well plates in Dulbecco's Modified Eagle's medium (DMEM) supplemented with 10% fetal bovine serum and 100 U/ml penicillin. Treatment with oligonucleotide and isolation of RNA were essentially as described above for T24 cells.
Northern hybridization: 10 μg of each RNA was electrophoresed on a 1.2% agarose/formaldehyde gel and transferred overnight to GeneBind 45 nylon membrane (Pharmacia LKB, Piscataway, N.J.) using standard methods. [Kingston in Current Protocols in Molecular Biology, F. M. Ausubel, R. Brent, R. E. Kingston, D. D. Moore, J. A. Smith, J. G. Seidman and K. Strahl, Eds., John Wiley and Sons, New York.] RNA was UV-crosslinked to the membrane. Double-stranded ^32P-labeled probes were synthesized using the Prime a Gene labeling kit (Promega, Madison Wis.). The ras probe was a SalI-NheI fragment of a cDNA clone of the activated (mutant) H-ras mRNA having a GGC-to-GTC mutation at codon-12. The control probe was G3PDH. Blots were prehybridized for 15 minutes at 68° C. with the QuickHyb hybridization solution (Stratagene, La Jolla, Calif.). The heat-denatured radioactive probe (2.5×10^6 counts/2 ml hybridization solution) mixed with 100 μl of 10 mg/ml salmon sperm DNA was added and the membrane was hybridized for 1 hour at 68° C. The blots were washed twice for 15 minutes at room temperature in 2×SSC/0.1% SDS and once for 30 minutes at 60° C. with 0.1×SSC/0.1% SDS. Blots were autoradiographed and the intensity of signal was quantitated using an ImageQuant PhosphorImager (Molecular Dynamics, Sunnyvale, Calif.). Northern blots were first hybridized with the ras probe, then stripped by boiling for 15 minutes in 0.1×SSC/0.1% SDS and rehybridized with the control G3PDH probe to check for correct sample loading.

H-ras = assay: ras transactivation reporter gene assay; type: cell-based; conditions: result in words
Protocol: These 2′ modified oligonucleotides were tested for antisense activity against H-ras using the transactivation reporter gene assay described in Example 26. […] A 2′-fluoro chimeric oligonucleotide with a centered 5-deoxy gap was also active.
The expression plasmid pSV2-oli, containing an activated (codon 12, GGC-GTC) H-ras cDNA insert under control of the constitutive SV40 promoter, was a gift from Dr. Bruno Tocque (Rhone-Poulenc Sante, Vitry, France). This plasmid was used as a template to construct, by PCR, a H-ras expression plasmid under regulation of the steroid-inducible mouse mammary tumor virus (MMTV) promoter. To obtain H-ras coding sequences, the 570 bp coding region of the H-ras gene was amplified by PCR. The PCR primers were designed with unique restriction endonuclease sites in their 5′-regions to facilitate cloning. The PCR product containing the coding region of the H-ras codon 12 mutant oncogene was gel purified, digested, and gel purified once again prior to cloning. This construction was completed by cloning the insert into the expression plasmid pMAMneo (Clontech Laboratories, CA).
The ras-responsive reporter gene pRDO53 was used to detect ras expression. [Owen et al., Proc. Natl. Acad. Sci. U.S.A., 87, 3866 (1990).

[4] = tested on: T24 cancer cell proliferation; assay: Antisense oligonucleotide inhibition of proliferation of cancer cells; type: cell-based, human
Protocol: Antisense oligonucleotide inhibition of proliferation of cancer cells: Three 17mer oligonucleotides having the same sequence (SEQ ID NO:1), complementary to the codon 12 region of activated ras, were tested for effects on T24 cancer cell proliferation as described in Example 28. 3985 is a full phosphorothioate oligonucleotide having a 7-deoxy gap flanked by 2′-O-methyl nucleotides, and 4690 is a full phosphorothioate oligonucleotide having a 7-deoxy gap flanked by 2′-F nucleotides (C^FC^FA^F C^FA^FCd CdGdAd CdGdGd C^FG^FC^F C^FC^F, SEQ ID NO:1, nucleotides identified with an “^F” contain a […] substituent group and the remainder of the nucleotides identified with a “d” are 2′-deoxy-erythro-pentofuranosyl nucleotides).
Cells were cultured and treated with oligonucleotide essentially as described in Example 27. Cells were seeded on 60 mm plates and were treated with oligonucleotide in the presence of DOTMA when they reached 70% confluency. Time course experiment: On day 1, cells were treated with a single dose of oligonucleotide at a final concentration of 100 nM. The growth medium was changed once on day 3 and cells were counted every day for 5 days, using a counting chamber. Dose-response experiment: Various concentrations of oligonucleotide (10, 25, 50, 100 or 250 nM) were added to the cells and cells were harvested and counted 3 days later. Oligonucleotides 2570, 3985 and 4690 were tested for effects on T24 cancer cell proliferation.

Row | IC50 ([4]; T24 cell proliferation, dose-response) | Substance | ras expression [1] | selectivity toward the mutant form of ras-luciferase as compared to the normal form [2] | inhibition of ras-luciferase activity ([2]; cells expressing the mutant form of ras-luciferase, dose response, FIGS. 1 and 2) | Tm [3] | ras expression / ras mRNA levels (ras mRNA) | antisense activity against H-ras (ras expression) (H-ras) | inhibition of ras expression / decrease of ras mRNA (ras mRNA) | inhibited cell proliferation ([4]; T24 cells)
1 | – | CdCdAd CdAdCd CdGdAd CdGdGd CdGdCd CdCd [Oligonucleotide 2570, reference compound] | did not inhibit ras expression in HeLa cells | threefold | dose-dependent inhibition | 64.2 °C | inhibited ras expression in T24 cells; also recorded: decreased ras mRNA levels in T24 cells | – | – | –
2 | 0.044 µM | C^FC^FA^F C^FA^FCd CdGdAd CdGdGd C^FG^FC^F C^FC^F [Oligonucleotide 4690] | – | – | – | 76.9 °C | – | most active | 82% | 93%
3 | – | TCCGTCATCGCTCCTCAGGG [Compound 2503, reference compound] | inhibited ras expression in HeLa cells | – | – | – | inhibited ras expression in T24 cells | – | 71% | –
4 | – | Oligonucleotide 4689: SEQ ID NO:1 chimeric oligonucleotide, 2′-fluoro-modified nucleotides flanking a 5-deoxy gap (CCACACCGACGGCGCCC; sugars from the 5' end f6 d5 f6, backbone and methylation of C not given here) | – | – | – | – | – | also active | 63% | –
